Source: paper PMC3578829, “A Small Molecule (Pluripotin) as a Tool for Studying Cancer Stem Cell Biology: Proof of Concept” (PLoS ONE, 2013)

Tests used:
[1] = tested on: colon tumor lines; assay: FACS analysis of CD326 and CD166, all tumor lines; assay type: cell-based; details: any of the tumor lines; five days of SC-1 treatment
Text: A BD FACsAria (BD Biosciences, San Jose, CA) was utilized for FACS analysis according to standard procedures. The instrument was equipped with a 488 nm 100 mW blue laser, a 638 nm 30 mW red laser, and a 405 nm 50 mW violet laser. The software package Diva 5.0 (BD Biosciences) was used for collection and analysis of data. The alignment of the three lasers in the flow cell was verified prior to running tumor cell samples by running Rainbow Beads (Spherotech). The six colors being used in the analysis were then compensated to account for spectral overlap emitted by the fluorochromes within each laser as well as across the lasers using a semi-automated process. […] The data was then run through the Diva software compensation matrices and the amount of “spectral bleed” from other fluorochromes into the fluorochrome of interest’s channel was determined and automatically compensated.
Treated and untreated cells (1×10^6 cells/condition) were harvested with trypsin EDTA (Invitrogen), washed, and then labeled with a six antibody cocktail (antibodies against the following epitopes: CD44, CD24, CD133, CD326, CD166, and P-glycoprotein in PBS without calcium and magnesium supplemented with 2% FBS) or appropriate isotype control antibodies. […] The specific amounts needed for each labeled antibody were determined through titration studies. […]

[2] = tested on: phospho-ERK1/2; design: method as in PMID 17088537; details: murine embryonic stem cells; 30 minutes of exposure; cited from earlier work
[3] = tested on: OCT4; assay: Immunoblotting of OCT4 in HCC-2998; assay type: cell-based; details: 0.1 µM SC-1
Description: (§1) Standard protein electrophoretic techniques were followed using previously published protocols. For these studies, the colon lines were cultured for 5 days with and without treatments, harvested with trypsin (0.25% trypsin 0.5 mM EDTA, Invitrogen), counted and lysed with a whole cell lysis buffer (10 mM Tris, 1.0 mM EDTA, 50 mM NaCl, 0.5% deoxycholate, 0.5% NP-40, 0.5% SDS, 1.0 mM PMSF, and aprotonin and a cocktail of phosphatase and protease inhibitors). The whole cell lysate was heated to 100°C for 10 min and then fractionated (1000 g, 10 min, 4°C). Protein concentrations were measured with the Pierce BCA Protein Assay. Twenty to 40 µg of protein lysate per lane were loaded onto 10% SDS polyacrylamide gels (Ready-Gels, Biorad) with Laemmli buffer. For immunoblotting, the primary antibodies were diluted in Tween/Tris wash buffer (0.1 mM Tris-HCl pH 7.5, 2.5% Tween-20, 150 mM NaCl) and 5% BSA or nonfat dry milk and incubated overnight at 4°C. Visualization of specific bands was accomplished with an alkaline phosphatase-labeled secondary anti-immunoglobulin antibody and the ECF Chemifluorescent reagent (GE Amersham). Pixel intensity of the imaged bands was measured using STORM (GE Amersham) and Image Quant Software. Normalization for loading was accomplished by reprobing with an anti-actin antibody, quantification of pixel intensity and data normalization.

[4] = tested on: OCT4; assay: Immunoblotting of OCT4 in HT29; assay type: cell-based; details: 0.1 µM SC-1
Description: as §1

[5] = tested on: RSK2; assay: Immunoblotting of RSK2 protein levels in COLO 205; assay type: cell-based; details: 5 days of exposure to 0.1 µM SC-1
Description: Since SC-1 inhibited RSK2 kinase activity, we first determined if RSK2 protein levels were altered.
as §1, with “Visualization of specific bands was accomplished with an alkaline phosphatase-labeled secondary anti-immunoglobulin antibody and the ECF Chemifluorescent reagent (GE Amersham).” left out

[6] = tested on: OCT4; assay: Immunoblotting of OCT4 in remaining colon tumor lines; assay type: cell-based; details: 0.1 µM SC-1
Description: as §1

[7] = tested on: HCT-15; assay: Limiting dilution tumorigenicity with Matrigel co-injection; assay type: in vivo, NOD.SCID mice; design: key to Tumorigenicity: Y indicates increased tumor formation or increased time to appearance or both.; Y ^%: Y indicates increased tumor formation when Matrigel was co-injected
Text: To explore the lack of a tumorigenic effect for SC-1 treated HCT-15 cells, the limiting dilution tumorigenicity assay was repeated with the addition of Matrigel to the injected cells (10, 100, 1000, and 10000 cells per injection). A protein support such as Matrigel may provide anchoring, a substrate for angiogenesis, and growth factors. […] For SC-1 treated cells co-injected with Matrigel, 5 of 5 mice had tumor formation over the 99 day observation period at the 10 cell inoculum (Figure 1).
Six week old female NOD.SCID mice were randomly assigned to each of 20 treatment arms (n = 5/group). Treated and control colon tumor lines were enzymatically harvested and counted prior to dilution in RPMI 1640 (at 10, 100, 1,000, 10,000 cells/inoculum) for subcutaneous injection into the axillary region using a volume of […]. Positive control groups were established such that tumor formation occurred in all mice in approximately one week thus confirming that all tumor lines studied were tumorigenic. Cell inocula for the positive control groups ranged from 1×10^6 to 2.5×10^6. Cell viability of the cell stocks was assessed by trypan blue exclusion prior to dilution for injection and was routinely found to be >95%. Tumor formation was monitored weekly using caliper measurements and the tumor mass was calculated as weight in mg = 1/2×(tumor length)×(tumor width)^2. All experiments were terminated at 120 days or when tumor weight exceeded 2000 mg for any individual mouse. In selected studies, tumor cells were resuspended in Matrigel (50% concentration, BD Biosciences) prior to injection.

[8] = tested on: colon tumor lines; details: five day exposure to 0.1 µM SC-1
Description: In all experiments, each tumor line was cultured in 60 mm^2 tissue culture treated dishes at an initial concentration of 62,500/ml (total 4 ml) before addition of 0.1 µM SC-1 or an equivalent amount of diluent (DMS0) the next day. Five day exposures were conducted. The final concentration utilized for treatment for all tumor lines was determined by evaluating a range of SC-1 concentrations (0.01 to 10 µM) for sphere formation and any cytotoxic effects in the HCT-116 tumor line.
*Each colon cell line was seeded on day 0 with 0.25 x 10^6 cell/60 mm^2 Petri dish. Compound (0.1 µM) was added on day 1 and cells were enzymatically harvested 5 days later.

Q: What does the source list for `Cc1cc(Nc2ncc3c(n2)N(C)C(=O)N(c2cc(NC(=O)c4cccc(C(F)(F)F)c4)ccc2C)C3)n(C)n1` [SC-1]?
A: CD326 and CD166 surface expression [1]: No changes; phospho-ERK1/2 protein levels [2]: inhibited; OCT4 protein expression [3]: increased; OCT4 protein expression [4]: increased; Decrease of RSK2 protein levels [5]: 33%; OCT4 protein expression [6]: unchanged or decreased; Tumor formation ([7]; HCT-15, 100, 1000, and 10000 cells per injection with Matrigel): tumors formed in all mice; Tumorigenicity ([7]; HCT-15, Matrigel co-injected, summary of SC-1 effects): Y ^%; Tumor formation (take rate) ([7]; HCT-15 SC-1 treated, 10 cell inoculum co-injected with Matrigel, 99 day observation): 5 of 5; Cell number after in vitro SC-1 treatment vs control [8]: statistically significant decrease in cell number
